Data taken from patent US9790228B2, “Heterocyclic kinase inhibitors” (Intellikine LLC, priority 2008, dated 2017).
pEC50, pIC50: −log10 of the molar value. Read-outs that look alike come from different tables or passages of the source.

Tests used:
p110γ = p110γ (Homo sapiens (Human), UniProt P48736); test: PI3K γ inhibition assay (TLC lipid kinase or HTRF); format: biochemical
Method: (§1) Class I PI3-Ks can be either purchased (p110α/p85α, p110β/p85α, p110δ/p85α from Upstate, and p110γ from Sigma) or expressed as previously described (Knight et al., 2004). IC50 values are measured using either a standard TLC assay for lipid kinase activity (described below) or a high-throughput membrane capture assay. Kinase reactions are performed by preparing a reaction mixture containing kinase, inhibitor (2% DMSO final concentration), buffer (25 mM HEPES, pH 7.4, 10 mM MgCl2), and freshly sonicated phosphatidylinositol (100 μg/ml). Reactions are initiated by the addition of ATP containing 10 μCi of γ-32P-ATP to a final concentration 10 or 100 μM and allowed to proceed for 5 minutes at room temperature. For TLC analysis, reactions are then terminated by the addition of […] 1N HCl followed by 160 μl CHCl3:MeOH (1:1). The biphasic mixture is vortexed, briefly centrifuged, and the organic phase is transferred to a new tube using a gel loading pipette tip precoated with CHCl3. This extract is spotted on TLC plates and developed for 3-4 hours in a 65:35 solution of n-propanol:1M acetic acid. The TLC plates are then dried, exposed to a phosphorimager screen (Storm, Amersham), and quantitated. For each compound, kinase activity is measured at 10-12 inhibitor concentrations representing two-fold dilutions from the highest concentration tested (typically, 200 μM).
(§2) Other commercial kits or systems for assaying PI3-K activities are available. The commercially available kits or systems can be used to screen for inhibitors and/or agonists of PI3-Ks including but not limited to PI 3-Kinase α, β, δ, and γ. Anr exemplary system is PI3-Kinase (human) HTRF™ Assay from Upstate. […] Briefly, the assay is a time resolved FRET assay that indirectly measures PIP3 product formed by the activity of a PI3-K. The kinase reaction is performed in a microtitre plate (e.g., a 384 well microtitre plate). The total reaction volume is approximately 20 ul per well. In the first step, each well receives 2 ul of test compound in 20% dimethylsulphoxide resulting in a 2% DMSO final concentration. Next, approximately 14.5 ul of a kinase/PIP2 mixture (diluted in 1× reaction buffer) is added per well for a final concentration of 0.25-0.3 ug/ml kinase and 10 uM PIP2. The plate is sealed and incubated for 15 minutes at room temperature. To start the reaction, 3.5 ul of ATP (diluted in 1× reaction buffer) is added per well for a final concentration of 10 uM ATP. The plate is sealed and incubated for 1 hour at room temperature. The reaction is stopped by adding 5 ul of Stop Solution per well and then 5 ul of Detection Mix is added per well. The plate is sealed, incubated for 1 hour at room temperature, and then read on an appropriate plate reader. Data is analyzed and IC50s are generated using GraphPad Prism 5.

Balb/c splenic B cells = test: B cell activation and proliferation assay (Alamar Blue); format: cell-based, mouse; details: Mus musculus, B-cell
Method: The ability of one or more subject compounds to inhibit B cell activation and proliferation is determined according to standard procedures known in the art. For example, an in vitro cellular proliferation assay is established that measures the metabolic activity of live cells. The assay is performed in a 96 well microtiter plate using Alamar Blue reduction. Balb/c splenic B cells are purified over a Ficoll-Paque™ PLUS gradient followed by magnetic cell separation using a MACS B cell Isolation Kit (Miletenyi). Cells are plated in 90 ul at 50,000 cells/well in B Cell Media (RPMI+10% FBS+Penn/Strep+50 uM bME+5 mM HEPES). A compound disclosed herein is diluted in B Cell Media and added in a 10 ul volume. Plates are incubated for 30 min at 37 C and 5% CO2 (0.2% DMSO final concentration). A 50 ul B cell stimulation cocktail is then added containing either 10 ug/ml LPS or 5 ug/ml F(ab′)2 Donkey anti-mouse IgM plus 2 ng/ml recombinant mouse IL4 in B Cell Media. Plates are incubated for 72 hours at 37° C. and 5% CO2. A volume of 15 uL of Alamar Blue reagent is added to each well and plates are incubated for 5 hours at 37 C and 5% CO2. Alamar Blue fluoresce is read at 560Ex/590Em, and IC50 or EC50 values are calculated using GraphPad Prism 5.

p110δ/p85α = p110δ/p85α (Homo sapiens (Human), UniProt O00329); test: PI3K δ inhibition assay (TLC lipid kinase or HTRF); format: biochemical
Method: as §1, §2

p110α/p85α = p110α/p85α (Homo sapiens (Human), UniProt P42336); test: PI3K α inhibition assay (TLC lipid kinase or HTRF); format: biochemical
Method: as §1, §2

p110β/p85α = p110β/p85α (Homo sapiens, UniProt P42338); test: PI3K β inhibition assay (TLC lipid kinase or HTRF); format: biochemical
Method: as §1, §2

Sequence of p110β/p85α (P42338 whole entry, looked up): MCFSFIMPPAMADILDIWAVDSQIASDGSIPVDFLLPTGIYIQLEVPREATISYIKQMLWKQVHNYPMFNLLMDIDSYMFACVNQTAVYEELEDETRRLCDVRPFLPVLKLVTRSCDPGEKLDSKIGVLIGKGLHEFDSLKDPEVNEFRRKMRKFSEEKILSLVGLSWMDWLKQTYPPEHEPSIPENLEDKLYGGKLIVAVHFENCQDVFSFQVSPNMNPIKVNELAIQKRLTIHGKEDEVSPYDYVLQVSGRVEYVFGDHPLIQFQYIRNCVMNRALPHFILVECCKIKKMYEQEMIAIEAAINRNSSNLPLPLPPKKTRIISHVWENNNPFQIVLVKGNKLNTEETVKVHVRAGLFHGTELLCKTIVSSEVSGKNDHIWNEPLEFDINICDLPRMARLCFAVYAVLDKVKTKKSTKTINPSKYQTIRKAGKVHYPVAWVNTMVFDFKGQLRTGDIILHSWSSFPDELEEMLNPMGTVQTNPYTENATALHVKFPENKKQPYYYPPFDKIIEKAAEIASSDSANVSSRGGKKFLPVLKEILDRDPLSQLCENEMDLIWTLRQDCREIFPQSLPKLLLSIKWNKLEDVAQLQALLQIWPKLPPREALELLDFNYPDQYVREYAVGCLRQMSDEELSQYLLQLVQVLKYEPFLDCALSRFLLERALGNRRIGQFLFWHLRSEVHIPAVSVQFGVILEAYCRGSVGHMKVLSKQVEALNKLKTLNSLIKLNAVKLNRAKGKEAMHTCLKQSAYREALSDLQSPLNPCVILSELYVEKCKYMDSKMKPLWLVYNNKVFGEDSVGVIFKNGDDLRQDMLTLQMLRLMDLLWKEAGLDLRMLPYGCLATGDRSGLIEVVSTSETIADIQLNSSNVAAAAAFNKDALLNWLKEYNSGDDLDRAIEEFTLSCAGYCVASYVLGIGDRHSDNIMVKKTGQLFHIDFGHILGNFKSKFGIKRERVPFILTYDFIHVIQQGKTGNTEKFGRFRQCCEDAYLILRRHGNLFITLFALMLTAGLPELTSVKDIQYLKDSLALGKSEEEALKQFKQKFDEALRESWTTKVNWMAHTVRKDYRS
Sequence of p110δ/p85α (O00329 whole entry): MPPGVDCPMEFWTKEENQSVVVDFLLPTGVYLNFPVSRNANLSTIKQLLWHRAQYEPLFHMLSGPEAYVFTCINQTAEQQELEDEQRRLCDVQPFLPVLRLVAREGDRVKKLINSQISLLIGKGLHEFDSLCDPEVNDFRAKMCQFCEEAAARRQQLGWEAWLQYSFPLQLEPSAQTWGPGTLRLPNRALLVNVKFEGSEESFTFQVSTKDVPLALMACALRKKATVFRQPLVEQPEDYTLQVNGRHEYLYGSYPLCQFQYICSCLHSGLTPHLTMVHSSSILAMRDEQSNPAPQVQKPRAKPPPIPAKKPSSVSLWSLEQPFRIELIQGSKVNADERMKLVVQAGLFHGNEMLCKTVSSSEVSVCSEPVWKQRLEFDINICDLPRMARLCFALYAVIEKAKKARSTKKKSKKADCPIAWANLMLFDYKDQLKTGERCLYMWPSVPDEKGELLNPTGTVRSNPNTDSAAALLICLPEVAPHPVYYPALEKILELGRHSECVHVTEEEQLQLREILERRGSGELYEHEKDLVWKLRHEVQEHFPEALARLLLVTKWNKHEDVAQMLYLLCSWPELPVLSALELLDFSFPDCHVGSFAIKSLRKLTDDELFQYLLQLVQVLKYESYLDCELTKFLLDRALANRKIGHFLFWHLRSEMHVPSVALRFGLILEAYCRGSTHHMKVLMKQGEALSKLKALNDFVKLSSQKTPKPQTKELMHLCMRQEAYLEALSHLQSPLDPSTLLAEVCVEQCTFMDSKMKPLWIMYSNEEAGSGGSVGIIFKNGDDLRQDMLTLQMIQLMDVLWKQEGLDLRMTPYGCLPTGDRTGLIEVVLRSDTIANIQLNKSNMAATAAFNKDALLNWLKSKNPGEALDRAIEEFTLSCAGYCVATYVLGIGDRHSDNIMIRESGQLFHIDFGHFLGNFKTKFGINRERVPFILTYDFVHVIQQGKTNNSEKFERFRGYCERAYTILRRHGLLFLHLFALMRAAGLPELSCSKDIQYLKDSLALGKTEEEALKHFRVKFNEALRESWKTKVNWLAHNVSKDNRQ
Sequence of p110δ/p85α (P27986 whole entry partner): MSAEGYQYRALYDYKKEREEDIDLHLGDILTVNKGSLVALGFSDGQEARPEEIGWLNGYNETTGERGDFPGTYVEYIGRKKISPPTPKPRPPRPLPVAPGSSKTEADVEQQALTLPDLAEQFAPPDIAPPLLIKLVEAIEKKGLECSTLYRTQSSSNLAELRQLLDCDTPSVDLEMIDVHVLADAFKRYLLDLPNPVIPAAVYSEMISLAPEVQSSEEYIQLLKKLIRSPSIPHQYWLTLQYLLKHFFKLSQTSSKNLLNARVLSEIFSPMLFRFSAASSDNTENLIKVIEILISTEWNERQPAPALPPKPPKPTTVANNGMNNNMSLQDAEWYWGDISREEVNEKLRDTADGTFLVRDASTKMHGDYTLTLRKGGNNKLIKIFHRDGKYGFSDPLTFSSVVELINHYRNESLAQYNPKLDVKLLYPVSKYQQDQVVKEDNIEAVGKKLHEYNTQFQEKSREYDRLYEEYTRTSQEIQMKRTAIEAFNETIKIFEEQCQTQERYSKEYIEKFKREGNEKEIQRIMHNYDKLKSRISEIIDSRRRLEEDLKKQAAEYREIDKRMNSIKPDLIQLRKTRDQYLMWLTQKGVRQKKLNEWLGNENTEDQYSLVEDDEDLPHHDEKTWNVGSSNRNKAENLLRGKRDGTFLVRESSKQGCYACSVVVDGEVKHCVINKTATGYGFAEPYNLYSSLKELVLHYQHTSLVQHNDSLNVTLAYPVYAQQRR
Sequence of p110γ (P48736 whole entry): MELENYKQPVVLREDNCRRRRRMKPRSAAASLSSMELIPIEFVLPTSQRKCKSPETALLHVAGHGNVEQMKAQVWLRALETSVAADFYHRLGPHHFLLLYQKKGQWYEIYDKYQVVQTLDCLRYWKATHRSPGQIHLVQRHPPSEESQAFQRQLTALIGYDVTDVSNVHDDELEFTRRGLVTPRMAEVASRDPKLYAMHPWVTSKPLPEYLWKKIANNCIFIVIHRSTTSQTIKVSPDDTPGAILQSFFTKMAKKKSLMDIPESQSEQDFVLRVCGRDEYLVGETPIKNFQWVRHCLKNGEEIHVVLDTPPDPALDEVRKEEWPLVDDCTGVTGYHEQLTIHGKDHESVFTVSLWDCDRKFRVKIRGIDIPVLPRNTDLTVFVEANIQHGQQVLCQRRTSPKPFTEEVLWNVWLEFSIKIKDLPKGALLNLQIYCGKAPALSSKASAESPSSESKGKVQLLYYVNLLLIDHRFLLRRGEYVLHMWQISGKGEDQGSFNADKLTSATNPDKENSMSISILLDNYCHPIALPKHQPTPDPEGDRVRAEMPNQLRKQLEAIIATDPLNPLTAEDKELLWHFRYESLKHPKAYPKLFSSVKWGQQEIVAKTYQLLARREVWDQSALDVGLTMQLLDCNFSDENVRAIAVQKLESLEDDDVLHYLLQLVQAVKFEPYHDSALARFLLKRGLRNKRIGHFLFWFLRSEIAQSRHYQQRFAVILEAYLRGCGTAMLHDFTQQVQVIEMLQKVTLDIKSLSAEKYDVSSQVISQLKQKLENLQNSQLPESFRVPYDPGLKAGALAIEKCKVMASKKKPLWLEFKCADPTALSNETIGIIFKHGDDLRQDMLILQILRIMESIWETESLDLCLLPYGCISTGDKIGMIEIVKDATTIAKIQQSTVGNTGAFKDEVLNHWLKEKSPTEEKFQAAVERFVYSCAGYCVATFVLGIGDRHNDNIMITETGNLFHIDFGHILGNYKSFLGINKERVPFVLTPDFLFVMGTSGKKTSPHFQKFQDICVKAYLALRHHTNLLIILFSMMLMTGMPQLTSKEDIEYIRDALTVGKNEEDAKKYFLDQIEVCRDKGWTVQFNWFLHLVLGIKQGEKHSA
Sequence of p110α/p85α (P42336 whole entry): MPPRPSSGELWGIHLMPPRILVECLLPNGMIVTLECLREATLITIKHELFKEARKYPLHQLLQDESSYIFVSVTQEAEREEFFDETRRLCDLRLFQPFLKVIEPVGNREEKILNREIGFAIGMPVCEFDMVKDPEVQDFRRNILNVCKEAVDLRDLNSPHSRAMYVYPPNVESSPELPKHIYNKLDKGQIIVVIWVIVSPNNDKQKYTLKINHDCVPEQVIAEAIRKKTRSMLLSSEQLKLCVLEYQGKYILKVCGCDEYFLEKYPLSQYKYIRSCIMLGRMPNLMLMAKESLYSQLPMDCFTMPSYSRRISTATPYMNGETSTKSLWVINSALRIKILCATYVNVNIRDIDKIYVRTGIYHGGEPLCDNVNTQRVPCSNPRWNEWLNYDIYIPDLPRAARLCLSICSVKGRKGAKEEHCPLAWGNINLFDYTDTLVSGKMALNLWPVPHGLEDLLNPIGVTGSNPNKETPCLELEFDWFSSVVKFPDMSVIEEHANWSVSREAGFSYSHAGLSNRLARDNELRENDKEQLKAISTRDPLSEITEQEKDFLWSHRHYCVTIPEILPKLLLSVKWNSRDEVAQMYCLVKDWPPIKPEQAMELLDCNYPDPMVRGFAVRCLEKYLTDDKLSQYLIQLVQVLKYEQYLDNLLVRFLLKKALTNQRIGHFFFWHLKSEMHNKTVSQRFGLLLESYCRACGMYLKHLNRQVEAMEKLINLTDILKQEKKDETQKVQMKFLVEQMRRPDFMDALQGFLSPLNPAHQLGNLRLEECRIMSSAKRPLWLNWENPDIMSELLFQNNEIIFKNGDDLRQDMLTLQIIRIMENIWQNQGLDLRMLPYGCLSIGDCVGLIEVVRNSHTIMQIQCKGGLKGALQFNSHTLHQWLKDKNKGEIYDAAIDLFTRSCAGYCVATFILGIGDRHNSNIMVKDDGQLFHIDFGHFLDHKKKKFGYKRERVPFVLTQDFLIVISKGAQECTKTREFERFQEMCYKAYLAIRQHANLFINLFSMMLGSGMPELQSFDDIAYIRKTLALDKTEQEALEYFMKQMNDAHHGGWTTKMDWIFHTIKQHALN
Sequence of p110α/p85α (P27986 whole entry partner): as the sequence (P27986 whole entry partner) above

pIC50 (p110γ)	pIC50 (p110δ/p85α)	pIC50 (p110α/p85α)	pIC50 (p110β/p85α; read-out: PI3K β IC50)	SMILES	pEC50 (Balb/c splenic B cells)	pIC50 (p110β/p85α; PI3K β IC50)
6.00 to 7.00	> 7.00	–	–	Nc1ncnc2c1c(-c1cc(O)cc(F)c1)nn2Cc1cc2ccccc2nc1-c1ccccc1C(F)(F)F [Compound 45]	> 7.00	–
< 6.00	6.00 to 7.00	–	–	C[C@@H](O)C#Cc1nn(Cc2cc3ccccc3nc2N2CCCC2)c2ncnc(N)c12 [Compound 48]	6.00 to 7.00	–
< 6.00	< 6.00	< 6.00	< 6.00	CNc1ncnc2c1c(-c1cc(O)cc(F)c1)nn2Cc1cc2ccccc2nc1N(C)CCN1CCOCC1 [Compound 76]	–	–
< 6.00	6.00 to 7.00	< 6.00	< 6.00	CCn1c(=O)c(Cn2nc(-c3cccc(O)c3)c3c(N)ncnc32)nc2ccccc21 [Compound 116]	–	–
–	> 7.00	–	–	Nc1ncnc2c1c(-c1cnc3[nH]ccc3c1)nn2Cc1cc2ccccc2nc1N1CCCC1 [Compound 23]	> 7.00	–
< 6.00	< 6.00	< 6.00	< 6.00	CN1CCN(c2nc3ccccc3cc2CNc2ncnc3[nH]cnc23)CC1 [Compound 87]	–	–
–	> 7.00	–	–	CC(C)c1ccccc1-c1nc2ccccc2cc1Cn1nc(C#C[C@@H](C)O)c2c(N)ncnc21 [Compound 16]	6.00 to 7.00	–
–	> 7.00	–	–	Nc1ncnc2c1c(-c1cc(O)cc(F)c1)nn2Cc1cc2ccccc2nc1-c1ccccc1F [Compound 19]	> 7.00	–
< 6.00	6.00 to 7.00	< 6.00	< 6.00	CCn1c(=O)c(Cn2nc(-c3cccc(O)c3)c3c(N)ncnc32)cc2ccccc21 [Compound 115]	–	–
< 6.00	6.00 to 7.00	< 6.00	< 6.00	CCC(c1cc2ccccc2nc1N1CCN(C)CC1)n1cnc2c(N)ncnc21 (centres unmarked) [Compound 90]	–	–
> 7.00	> 7.00	6.00 to 7.00	< 6.00	CCn1c(=O)c(Cn2nc(-c3ccc4nc(N)sc4c3)c3c(N)ncnc32)nc2ccccc21 [Compound 119]	–	–
< 6.00	> 7.00	< 6.00	< 6.00	CCn1c(=O)c(Cn2nc(-c3cc(O)cc(F)c3)c3c(N)ncnc32)nc2ccccc21 [Compound 117]	–	–
> 7.00	> 7.00	< 6.00	< 6.00	CCc1nc2ccccc2cc1Cn1nc(-c2ccc3nc(NC(C)=O)sc3c2)c2c(N)ncnc21 [Compound 98]	–	–
< 6.00	6.00 to 7.00	< 6.00	< 6.00	CC(Nc1ncnc2[nH]cnc12)c1cc2ccccc2nc1N1CCCC1 (centres unmarked) [Compound 88]	–	–
–	> 7.00	–	–	Cc1cccc2cc(Cn3nc(I)c4c(N)ncnc43)c(N3CCN(C)CC3)nc12 [Compound 11]	> 7.00	–
–	> 7.00	–	–	Nc1ncnc2c1c(-c1cc(O)cc(F)c1)nn2Cc1cc2ccccc2nc1N1CCCCC1 [Compound 20]	> 7.00	–
–	> 7.00	–	–	COc1ccccc1-c1nc2ccccc2cc1Cn1nc(-c2cc(O)cc(F)c2)c2c(N)ncnc21 [Compound 15]	> 7.00	–
< 6.00	6.00 to 7.00	< 6.00	< 6.00	Nc1ncnc2c1c(-c1cc(O)cc(F)c1)nn2Cc1cc2ccccc2nc1NC1CC1 [Compound 29]	–	–

pIC50 (p110γ)	pIC50 (p110δ/p85α)	pIC50 (p110α/p85α)	pIC50 (p110β/p85α; read-out: PI3K β IC50)	SMILES	pEC50 (Balb/c splenic B cells)	pIC50 (p110β/p85α; PI3K β IC50)
< 6.00	6.00 to 7.00	< 6.00	< 6.00	Cn1c(=O)c(Cn2nc(-c3cccc(O)c3)c3c(N)ncnc32)cc2ccccc21 [Compound 111]	–	–
6.00 to 7.00	> 7.00	< 6.00	< 6.00	CC(=O)Nc1nc2ccc(-c3nn(Cc4cc5ccccc5nc4-n4ccnc4C)c4ncnc(N)c34)cc2s1 [Compound 170]	–	–
–	> 7.00	–	–	Cc1cccc2cc(Cn3nc(-c4cccc(O)c4)c4c(N)ncnc43)c(N3CCN(C)CC3)nc12 [Compound 13]	> 7.00	–
> 7.00	> 7.00	6.00 to 7.00	6.00 to 7.00	Cc1cccc2cc(Cn3nc(-c4cc(O)cc(F)c4)c4c(N)ncnc43)c(N3CCOCC3)nc12 [Compound 65]	–	–
< 6.00	> 7.00	< 6.00	< 6.00	CCC(Nc1ncnc2[nH]cnc12)c1cc2ccccc2nc1N1CCN(C)CC1 (centres unmarked) [Compound 95]	–	–
6.00 to 7.00	> 7.00	< 6.00	< 6.00	CC(Nc1ncnc2[nH]cnc12)c1cc2ccccc2nc1-c1ccccc1 (centres unmarked) [Compound 93]	–	–
6.00 to 7.00	> 7.00	< 6.00	< 6.00	CCn1c(=O)c(Cn2nc(-c3ccc4nc(NC(C)=O)sc4c3)c3c(N)ncnc32)nc2ccccc21 [Compound 118]	–	–
6.00 to 7.00	> 7.00	< 6.00	< 6.00	CCc1nc2ccccc2cc1Cn1nc(-c2cccc(O)c2)c2c(N)ncnc21 [Compound 96]	–	–
–	> 7.00	–	–	Cc1cccc2cc(Cn3nc(-c4cc(O)cc(F)c4)c4c(N)ncnc43)c(N3CCN(C)CC3)nc12 [Compound 12]	> 7.00	–
< 6.00	6.00 to 7.00	< 6.00	< 6.00	Nc1ncnc2c1c(-c1cccc(O)c1)nn2Cc1cc2ccccc2[nH]c1=O [Compound 109]	–	–
< 6.00	6.00 to 7.00	< 6.00	< 6.00	NC(=O)/C=C/c1nn(Cc2cc3ccccc3nc2-c2ccccc2F)c2ncnc(N)c12 [Compound 194]	–	–
< 6.00	6.00 to 7.00	< 6.00	< 6.00	CC(c1cc2ccccc2nc1N1CCN(C)CC1)n1cnc2c(N)ncnc21 (centres unmarked) [Compound 89]	–	–
< 6.00	< 6.00	< 6.00	< 6.00	Nc1ncnc2c1c(/C=C1/CCNC1=O)nn2Cc1cc2ccccc2nc1-c1ccccc1F [Compound 193]	–	–
< 6.00	> 7.00	< 6.00	< 6.00	CCn1c(=O)c(Cn2nc(-c3cc(O)cc(F)c3)c3c(N)ncnc32)cc2ccccc21 [Compound 113]	–	–
> 7.00	> 7.00	6.00 to 7.00	6.00 to 7.00	CCc1nc2ccccc2cc1Cn1nc(-c2ccc3nc(N)sc3c2)c2c(N)ncnc21 [Compound 99]	–	–
–	> 7.00	–	–	Nc1ncnc2c1c(-c1cc(O)cc(F)c1)nn2Cc1cc2ccccc2nc1NC1CCC1 [Compound 42]	> 7.00	–
< 6.00	< 6.00	< 6.00	< 6.00	C=Cc1nn(Cc2cc3ccccc3nc2-c2ccccc2F)c2ncnc(N)c12 [Compound 190]	–	–

SMILES	pIC50 (p110γ)	pIC50 (p110δ/p85α)	pIC50 (p110α/p85α)	pIC50 (p110β/p85α; read-out: PI3K β IC50)	pEC50 (Balb/c splenic B cells)	pIC50 (p110β/p85α; PI3K β IC50)
NC(=O)c1nn(Cc2cc3ccccc3nc2-c2ccccc2F)c2ncnc(N)c12 [Compound 191]	< 6.00	6.00 to 7.00	< 6.00	–	–	< 6.00
CN1CCN(c2nc3ccccc3cc2Cn2cnc3c(N)ncnc32)CC1 [Compound 67]	< 6.00	< 6.00	< 6.00	–	–	< 6.00
